Measured values reported in patent US20240041042A1, “1-(PYRIDYL)-5-AZINYLPYRAZOLE DERIVATIVES, AND THEIR USE FOR CONTROL OF UNDESIRED PLANT GROWTH” (Bayer Aktiengesellschaft, priority 2020, published 2024).

Columns and labels:
Assay type in all cases: in vivo
[1] = system: Pharbitis purpurea (PHBPU); test: Pre-emergence herbicidal action against PHBPU
In short: (§1)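 Greenhouse pot trial: seeds sown, soil-covered, sprayed before emergence with compound in water (0.5% additive; 600 l/ha; ≤320 g/ha). Scoring visual, ~3 weeks, 0–100% scale vs untreated.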

[2] = system: Setaria viridis (SETVI); test: Pre-emergence herbicidal action against SETVI
In short: as §1

[3] = system: Verconica persica (VERPE); test: Post-emergence herbicidal action against VERPE
In short: (§2)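 Doses of 320 g/ha or lower, suffixes a, b and c marking different dosages, were applied post-emergence at the one-leaf stage in 600 l/ha water with 0.5% additive. Damage was assessed visually after about 3 weeks in the greenhouse.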

[4] = system: Lolium rigidum (LOLRI); test: Pre-emergence herbicidal action against LOLRI
In short: as §1

[5] = system: Polygonum convolvulus (POLCO); test: Pre-emergence herbicidal action against POLCO
In short: as §1

[6] = system: Setaria viridis (SETVI); test: Post-emergence herbicidal action against SETVI
In short: as §2

[7] = system: Viola tricolor (VIOTR); test: Post-emergence herbicidal action against VIOTR
In short: as §2

[8] = system: Abutilon theophrasti (ABUTH); test: Post-emergence herbicidal action against ABUTH; conditions: visual rating about 3 weeks after treatment vs untreated controls (100% = plants have died, 0% = like control plants)
In short: as §2

[9] = system: Matricaria inodora (MATIN); test: Pre-emergence herbicidal action against MATIN
In short: as §1

[10] = system: Pharbitis purpurea (PHBPU); test: Post-emergence herbicidal action against PHBPU
In short: as §2

Compound | Pre-emergence action against PHBPU in % ([1]; dosage 80 g/ha) [%] | Pre-emergence action against PHBPU in % ([1]; dosage 320 g/ha) [%] | Pre-emergence action against SETVI in % ([2]; dosage 80 g/ha) [%] | Pre-emergence action against SETVI in % ([2]; dosage 320 g/ha) [%] | Post-emergence action against VERPE in % ([3]; 320 g/ha, VERPE) [%] | Post-emergence action against VERPE in % ([3]; dosage 80 g/ha) [%] | Pre-emergence action against LOLRI in % ([4]; dosage 80 g/ha) [%] | Pre-emergence action against LOLRI in % ([4]; dosage 320 g/ha) [%] | Pre-emergence action against POLCO in % ([5]; dosage 80 g/ha) [%] | Pre-emergence action against POLCO in % ([5]; dosage 320 g/ha) [%] | Post-emergence action against SETVI in % ([6]; dosage 80 g/ha) [%] | Post-emergence action against SETVI in % ([6]; dosage 320 g/ha) [%] | Post-emergence action against VIOTR in % ([7]; 320 g/ha) [%] | Post-emergence action against ABUTH in % ([8]; 80 g/ha) [%] | Post-emergence action against ABUTH in % ([8]; 320 g/ha) [%] | Pre-emergence action against MATIN in % ([9]; dosage 80 g/ha) [%] | Pre-emergence action against MATIN in % ([9]; dosage 320 g/ha) [%] | Post-emergence action against PHBPU in % ([10]; dosage 80 g/ha) [%] | Post-emergence action against PHBPU in % ([10]; dosage 320 g/ha) [%] | Post-emergence action against VIOTR in % ([7]; 80 g/ha) [%]
COC(=O)[C@@H](C)Oc1nn(-c2nc(F)ccc2F)c(-c2cncc(F)c2)c1Br [Example I-191] | 80 | 90 | 80 | 100 | 90 | 80 | 90 | 90 | 80 | 90 | 80 | 80 | 80 | 80 | 80 | 90 | 90 | 90 | 100 | –
CCOC(=O)[C@@H](C)Oc1nn(-c2ncccc2F)c(-c2ccc(F)nc2)c1C1CC1 [Example I-375] | 80 | 90 | 90 | 100 | 90 | 80 | 100 | 100 | 90 | 90 | 90 | 90 | 90 | 90 | 90 | 100 | 100 | 80 | 90 | 80
COC(=O)[C@@H](C)Oc1nn(-c2ncccc2F)c(-c2ccc(F)nc2)c1C(F)(F)F [Example I-331] | – | 90 | – | 90 | 90 | 90 | 90 | 100 | 100 | 100 | 90 | 90 | 80 | 90 | 90 | 100 | 100 | – | 90 | 80
C[C@@H](Oc1nn(-c2ncccc2F)c(-c2ccc(F)nc2)c1C1CC1)C(=O)O [Example I-342] | 80 | 90 | 90 | 100 | 90 | 90 | 100 | 100 | 90 | 100 | 90 | 90 | 90 | 80 | 90 | 100 | 100 | 80 | 90 | 90
